Measurements reported in PubChem BioAssay AID248 (DTP/NCI, 2004).
Inconclusive results and toxic doses are left out. Rule as the data show it: active = T/C of 150% or more; inactive = T/C below 125%.

System: L1210 leukemia ip in BDF1 mice, survival T/C
Test: NCI In Vivo Anticancer Drug Screen. Data for tumor model L1210 Leukemia (intraperitoneal) in B6D2F1 (BDF1) mice
Settings: endpoint: mean survival time, higher = longer survival
How it was run: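 Each compound was tested against a transplantable tumor grown in mice. The endpoint was survival, with treated animals benchmarked against vehicle controls as a simple ratio.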

[1] = dose: 100.0 mg/kg/injection, schedule: Q04DX002 (ip), vehicle: Klucel (hydroxypropylcellulose) (HPC)
[2] = dose: 200.0 mg/kg/injection, schedule: Q04DX002 (ip), vehicle: Klucel (hydroxypropylcellulose) (HPC)
[3] = dose: 100.0 mg/kg/injection, schedule: Q04DX002 (ip), vehicle: saline
[4] = dose: 200.0 mg/kg/injection, schedule: Q04DX002 (ip), vehicle: saline
[5] = dose: 50.0 mg/kg/injection, schedule: Q01DX001 (ip), vehicle: saline
[6] = dose: 100.0 mg/kg/injection, schedule: Q01DX001 (ip), vehicle: saline
[7] = dose: 200.0 mg/kg/injection, schedule: Q01DX001 (ip), vehicle: saline
[8] = dose: 400.0 mg/kg/injection, schedule: Q01DX001 (ip), vehicle: saline
[9] = dose: 100.0 mg/kg/injection, schedule: Q01DX009 (ip), vehicle: saline with Tween-80
[10] = dose: 200.0 mg/kg/injection, schedule: Q01DX009 (ip), vehicle: saline with Tween-80
[11] = dose: 100.0 mg/kg/injection, schedule: Q04DX003 (ip), vehicle: Klucel (hydroxypropylcellulose) (HPC)
[12] = dose: 200.0 mg/kg/injection, schedule: Q04DX003 (ip), vehicle: Klucel (hydroxypropylcellulose) (HPC)
[13] = dose: 400.0 mg/kg/injection, schedule: Q04DX003 (ip), vehicle: Klucel (hydroxypropylcellulose) (HPC)
[14] = dose: 200.0 mg/kg/injection, schedule: Q04DX002 (ip), vehicle: saline with Tween-80
[15] = dose: 400.0 mg/kg/injection, schedule: Q04DX002 (ip), vehicle: saline with Tween-80
[16] = dose: 100.0 mg/kg/injection, schedule: Q04DX003 (ip), vehicle: saline
[17] = dose: 200.0 mg/kg/injection, schedule: Q04DX003 (ip), vehicle: saline
[18] = dose: 400.0 mg/kg/injection, schedule: Q04DX003 (ip), vehicle: saline

Measured: T/C

COC(=O)c1ccccc1NC(=O)Nc1cccc(OC)c1
inactive: [1] 108 % of control | [2] 97 % of control | dose: 400.0 mg/kg/injection, schedule: Q04DX002 (ip), vehicle: Klucel (hydroxypropylcellulose) (HPC) 105 % of control

C=CCC1(CCCC)C(=O)NC(=O)NC1=O
inactive: dose: 75.0 mg/kg/injection, schedule: Q01DX001 (ip), vehicle: saline 89 % of control | dose: 150.0 mg/kg/injection, schedule: Q01DX001 (ip), vehicle: saline 105 % of control

CC1C(C)N1P(I)(c1ccccc1)(c1ccccc1)c1ccccc1 (configuration not stated)
inactive: dose: 2.5 mg/kg/injection, schedule: Q01DX001 (ip), vehicle: carboxymethylcellulose (CMC) 115 % of control

NC(=O)C1CCNCC1
inactive: [3] 108 % of control | [4] 102 % of control | dose: 400.0 mg/kg/injection, schedule: Q04DX002 (ip), vehicle: saline 115 % of control

CN1C(OO)CCOP1(=O)N(CCCl)CCCl (configuration not stated)
inactive: dose: 75.0 mg/kg/injection, schedule: Q01DX001 (ip), vehicle: DMSO 96 % of control | dose: 150.0 mg/kg/injection, schedule: Q01DX001 (ip), vehicle: DMSO 99 % of control

C(=N\N(CCCCN(/N=C/c1ccccc1)c1ccccc1)c1ccccc1)/c1ccccc1
inactive: dose: 12.5 mg/kg/injection, schedule: Q01DX009 (ip), vehicle: gum acacia 111 % of control | dose: 25.0 mg/kg/injection, schedule: Q01DX009 (ip), vehicle: gum acacia 96 % of control | [5] 96 % of control | dose: 50.0 mg/kg/injection, schedule: Q01DX009 (ip), vehicle: gum acacia 92 % of control | [6] 104 % of control | dose: 100.0 mg/kg/injection, schedule: Q04DX003 (ip), vehicle: gum acacia 94 % of control | [7] 91 % of control | dose: 200.0 mg/kg/injection, schedule: Q01DX009 (ip), vehicle: gum acacia 87 % of control | dose: 200.0 mg/kg/injection, schedule: Q04DX003 (ip), vehicle: gum acacia 89 % of control | [8] 98 % of control | dose: 400.0 mg/kg/injection, schedule: Q01DX009 (ip), vehicle: gum acacia 86 % of control | dose: 400.0 mg/kg/injection, schedule: Q04DX003 (ip), vehicle: gum acacia 91 % of control

CN(C)C(=S)NCc1ccccc1
inactive: [9] 95 % of control | [10] 101 % of control

NC(CSCCc1ccc([N+](=O)[O-])cc1)C(=O)O (configuration not stated)
inactive: [11] 105 % of control | [12] 96 % of control | [13] 93 % of control

CC1=Nc2ccccc2NC(C)(C)C1
inactive: [3] 102 % of control | [11] 100 % of control | [4] 102 % of control | [12] 98 % of control | [13] 98 % of control

CCCCCCCCOC(=O)CCCCl
inactive: dose: 100.0 mg/kg/injection, schedule: Q04DX002 (ip), vehicle: saline with Tween-80 107 % of control | [14] 100 % of control | [15] 102 % of control

COC1(c2ccc(Cl)s2)OC1(C)C (configuration not stated)
inactive: dose: 100.0 mg/kg/injection, schedule: Q01DX009 (ip), vehicle: saline 100 % of control | [16] 100 % of control | dose: 200.0 mg/kg/injection, schedule: Q01DX009 (ip), vehicle: saline 96 % of control | [17] 105 % of control | dose: 400.0 mg/kg/injection, schedule: Q01DX009 (ip), vehicle: saline 105 % of control | [18] 96 % of control

OCC1OC(c2ccccc2)OC1C1OC(c2ccccc2)OC1CO (configuration not stated)
inactive: [6] 98 % of control | [7] 96 % of control | [8] 98 % of control

O=C(CCCC(=O)N/N=C/c1cc(Cl)ccc1O)N/N=C\c1cc(Cl)ccc1O
inactive: [5] 98 % of control | [6] 93 % of control | [7] 96 % of control | [8] 98 % of control

NC1=CC(=O)C(=O)c2cccnc21
inactive: dose: 75.0 mg/kg/injection, schedule: Q01DX001 (ip), vehicle: other 92 % of control

O=[N+]([O-])c1ccccc1C=Nc1ccccc1O
inactive: [11] 103 % of control | [12] 97 % of control | [13] 94 % of control

O=C(O)C1C(c2c3ccc(=O)c(O)c-3oc3c(O)c(O)ccc23)C2(Cl)C(Cl)=C(Cl)C1(Cl)C2(Cl)Cl (configuration not stated)
inactive: dose: 50.0 mg/kg/injection, schedule: Q01DX009 (ip), vehicle: alcohol 92 % of control | dose: 100.0 mg/kg/injection, schedule: Q01DX009 (ip), vehicle: alcohol 92 % of control | dose: 100.0 mg/kg/injection, schedule: Q04DX003 (ip), vehicle: alcohol 100 % of control | dose: 200.0 mg/kg/injection, schedule: Q04DX003 (ip), vehicle: alcohol 95 % of control

NC(=O)N1CCCCC1
inactive: [6] 102 % of control | [7] 98 % of control | [8] 102 % of control

O=[N+]([O-])c1cccc(C(O)CC(O)(C(F)(F)F)C(F)(F)F)c1 (configuration not stated)
inactive: [9] 98 % of control | dose: 100.0 mg/kg/injection, schedule: Q04DX003 (ip), vehicle: saline with Tween-80 95 % of control | [10] 101 % of control | dose: 200.0 mg/kg/injection, schedule: Q04DX003 (ip), vehicle: saline with Tween-80 97 % of control | dose: 400.0 mg/kg/injection, schedule: Q01DX009 (ip), vehicle: saline with Tween-80 95 % of control | dose: 400.0 mg/kg/injection, schedule: Q04DX003 (ip), vehicle: saline with Tween-80 103 % of control

S=c1[nH]c(-c2ccccc2)cs1
inactive: dose: 50.0 mg/kg/injection, schedule: Q01DX001 (ip), vehicle: other 90 % of control | dose: 100.0 mg/kg/injection, schedule: Q01DX001 (ip), vehicle: Klucel (hydroxypropylcellulose) (HPC) 96 % of control | dose: 100.0 mg/kg/injection, schedule: Q01DX001 (ip), vehicle: other 96 % of control | dose: 100.0 mg/kg/injection, schedule: Q01DX009 (ip), vehicle: Klucel (hydroxypropylcellulose) (HPC) 96 % of control | dose: 200.0 mg/kg/injection, schedule: Q01DX001 (ip), vehicle: Klucel (hydroxypropylcellulose) (HPC) 95 % of control | dose: 200.0 mg/kg/injection, schedule: Q01DX001 (ip), vehicle: other 100 % of control | dose: 200.0 mg/kg/injection, schedule: Q01DX009 (ip), vehicle: Klucel (hydroxypropylcellulose) (HPC) 96 % of control | dose: 400.0 mg/kg/injection, schedule: Q01DX001 (ip), vehicle: Klucel (hydroxypropylcellulose) (HPC) 95 % of control | dose: 400.0 mg/kg/injection, schedule: Q01DX001 (ip), vehicle: other 96 % of control | dose: 400.0 mg/kg/injection, schedule: Q01DX009 (ip), vehicle: Klucel (hydroxypropylcellulose) (HPC) 97 % of control

CSc1cc(N)nc2c1ncn2C1OC(CO)C(O)C1O (configuration not stated)
inactive: [6] 113 % of control | [7] 93 % of control | [8] 103 % of control

CN1CCC=C(C(C)(C)O)C1
inactive: [16] 101 % of control | [17] 100 % of control | [18] 106 % of control

O=C1c2ccccc2-c2ccc(-c3ccccc3)c3cccc1c23
inactive: dose: 50.0 mg/kg/injection, schedule: Q04DX002 (ip), vehicle: Klucel (hydroxypropylcellulose) (HPC) 105 % of control | [1] 102 % of control | [2] 98 % of control | [14] 105 % of control | [15] 98 % of control
